Experiments:
[1] = molecular target: T1, Locusta migratoria tyramine receptor (TyrLoc) (Locusta migratoria, UniProt Q25321); experiment: cAMP measurements (Scintillation Proximity Assay) in MEL-TyrLoc cells; format: cell-based; conditions: for antagonism of the effect of TA on cAMP: 10 μM Fsk + 0.1 μM TA, yohimbine 100 nM to 1 nM, mianserin 10 nM, chlorpromazine 10 nM; for inhibition of forskolin-induced increase of cAMP: 10 μM Fsk + 1 nM to 10 μM TA, FIG. 6
T1 construct: The coding region of the TyrLoc cDNA was amplified by polymerase chain reaction (PCR) from pVJ12 and pVJ12-IEG; expressed in transfected cells
T1 sequence (Q25321 12-484): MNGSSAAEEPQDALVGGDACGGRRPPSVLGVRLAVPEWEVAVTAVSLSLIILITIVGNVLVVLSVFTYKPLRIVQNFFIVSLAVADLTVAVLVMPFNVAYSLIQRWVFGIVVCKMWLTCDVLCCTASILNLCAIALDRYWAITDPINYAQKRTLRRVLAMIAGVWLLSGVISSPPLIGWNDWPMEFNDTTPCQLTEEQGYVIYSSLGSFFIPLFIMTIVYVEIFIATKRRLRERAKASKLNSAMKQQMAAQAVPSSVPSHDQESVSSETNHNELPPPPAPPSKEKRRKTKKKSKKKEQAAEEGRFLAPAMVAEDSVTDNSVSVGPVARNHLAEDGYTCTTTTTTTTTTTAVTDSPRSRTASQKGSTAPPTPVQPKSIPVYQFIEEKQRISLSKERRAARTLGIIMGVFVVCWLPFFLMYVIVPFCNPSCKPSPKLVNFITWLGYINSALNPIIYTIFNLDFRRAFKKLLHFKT
Procedure: (§1) The effect of TA on the cAMP level of the transformed and untransformed cells was investigated. MEL-C88L and MEL-TyrLoc cells were seeded in 6-well plates to a density of 8.10^5 cells/well and allowed to attach. The cell medium was removed and, in different wells, replaced with different NCF buffer solutions as follows: • (i) NCF+1 μM tyramine (TA), • (ii) NCF+10 μM forskolin (Fsk), • (iii) NCF+10 μM Fsk+1 nM to 10 μM TA. where NCF comprised 135 mM NaCl, 5 mM KCl, 6 mM glucose, 0.62 mM MgCl2, 10 mM Hepes pH 7.4 4 mM CaCl2.
For the use of other ligands than TA, the solutions were: • (iv) NCF+10 μM Fsk+1 μM OA, • (v) NCF+10 μM Fsk+0.1 μM TA+100 nM to 1 nM yohimbine, • (vi) NCF+10 μM Fsk+0.1 μM TA+10 nM mianserin; and • (vii) NCF+10 μM Fsk+0.1 μM TA+10 nM chlorpromazine.
(§2) All solutions contained 200 μM […] (IBMX) in order to inhibit cAMP phosphodiesterase. In each study, triplicate wells were incubated with the same solution at 37° C. for exactly 30 min.
(§3) In order to extract the cAMP, 100% ice-cold ethanol was added to each well to a final concentration of 65%. After 5 min incubation at room temperature, the solution was removed from the wells which were then rinsed with 65% ethanol. The eluates from the same well were then pooled together and evaporated using a speedvac. cAMP was then measured using the Scintillation Proximity Assay (Amersham), according to the manufacturers recommended procedure. This experiment was done in triplicate.

[2] = molecular target: T1, Locusta migratoria tyramine receptor (TyrLoc); experiment: Ca2+ measurements (fura-2) in uninduced MEL-TyrLoc cells; format: cell-based; conditions: for antagonism of the Ca2+ increase induced by TA: qualitative, data not shown for part
Procedure: (§4) Elevations in intracellular Ca^2+ in response to stimulation with ligands of the tyramine receptor were measured as follows. Since MEL cells loose the ability to signal on differentiation, and as receptor expression was readily detectable without induction of the MEL cells, uninduced MEL C88L cells of the invention were used.
(§5) Ca^2+ concentration was measured by using the acetoxymethyl (AM) ester of the fluorescent indicator fura-2 (Grynkiewicz G et al. (1985) J. Biol. Chem. 260 3440–3450). Cells were washed with NCF buffer (135 mM NaCl, 5 mM KCl, 6 mM glucose, 0.62 mM MgCl2.6H2O, 10 mM HEPES, pH 7.4 with 4 mM CaCl2) and resuspended at a concentration of 2.10^6 cells/ml in NCF buffer containing 2 μM fura-2-AM (Molecular Probes). After 1 hour incubation in the dark at 27° C., the cell suspension was subjected to centrifugation at 1200 rpm for 5 minutes, resuspended in an equal volume of NCF buffer and incubated for an additional 30 min in the dark. Aliquots were centrifuged as above and resuspended in 3 ml NCF buffer. Measurements of intracellular calcium were made fluorimetrically in a LS-50B Luminescence Spectrophotometer (Perkin-Elmer) in the presence and absence of the appropriate test chemical. Excitation wavelength alternated between 340 and 380 nm. The fluorescence intensity was monitored at an emission wavelength of 510 nm.

[3] = system: Untransformed MEL-C88L cells; experiment: cAMP measurements (Scintillation Proximity Assay) in untransformed MEL-C88L cells; format: cell-based, Murine; conditions: 200 μM IBMX, FIG. 5
Procedure: as §1, §2, §3

[4] = molecular target: Dopamine Receptor (D-Dop1) (Drosophila melanogaster, UniProt P41596); conditions: 10 μM dopamine, Clones C and 2, 1×10^6 cells/well, FIG. 7
Procedure: (§6) These cells were then transferred to 96-well microtitre plates a final concentrations of 2×10^5 cells/well and 1×10^6 cells/well. […] 2 replicates/clone/concentrations were set up.
(§7) After incubation for 5 hours at 37° C. in an atmosphere of 10% CO2, a chlorophenol red β-D-galactopyranoside (CPRG) solution was added. The solution comprised 11.4 mg CPRG (Boehringer), 500 μl 10× Z buffer, 75 μl 20% SDS, 5 ml H2O and 7 μl ercaptoethanol. 10× Z buffer consists of 0.47M Na2HPO4(2H2O), 0.4M NaH2PO4(2H2O), 0.1M KCI, 10 mM MgSO4(7H2O), adjusted to pH 7.0 with NaOH solution.

[5] = system: Untransformed MEL-C88L cells; experiment: Ca2+ measurements (fura-2) in untransformed MEL-C88L control cells; format: cell-based, Murine; conditions: concentrations as high as 100 μM TA
Procedure: as §4, §5

serotonin receptor = experiment: β-galactosidase (CRE reporter) assay using serotonin clones of MEL C88L cells
Procedure: as §6, §7

[6] = yohimbine 0.1, 1 and 2.5 μM, FIG. 4

Sequence of Dopamine Receptor (D-Dop1) (P41596 20-511): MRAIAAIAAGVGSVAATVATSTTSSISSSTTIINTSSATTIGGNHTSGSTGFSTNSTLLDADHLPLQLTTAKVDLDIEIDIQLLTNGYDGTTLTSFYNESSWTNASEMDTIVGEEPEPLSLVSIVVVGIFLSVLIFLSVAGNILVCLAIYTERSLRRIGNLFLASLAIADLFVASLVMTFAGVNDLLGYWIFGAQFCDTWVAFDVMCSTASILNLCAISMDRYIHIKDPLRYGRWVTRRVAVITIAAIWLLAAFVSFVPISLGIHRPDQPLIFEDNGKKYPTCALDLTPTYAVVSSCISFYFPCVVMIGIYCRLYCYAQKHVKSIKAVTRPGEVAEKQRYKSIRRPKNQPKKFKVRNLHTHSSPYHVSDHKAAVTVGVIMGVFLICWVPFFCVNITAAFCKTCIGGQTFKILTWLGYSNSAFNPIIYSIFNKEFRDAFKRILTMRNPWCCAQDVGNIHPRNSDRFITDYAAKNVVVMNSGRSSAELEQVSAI

CN1CCN2c3ccccc3Cc3ccccc3C2C1 (centres unmarked) [mianserin]
antagonism of the effect of TA on cAMP [1]: antagonistic effects
antagonism of the Ca2+ increase induced by TA [2]: clearly inhibited

C=C[C@@]1(C)CC(=O)[C@]2(O)[C@@]3(C)[C@@H](O)CCC(C)(C)[C@@H]3[C@H](O)[C@H](OC(C)=O)[C@@]2(C)O1 [Forskolin, forskolin]
increase of cAMP level ([3]; 10 μM forskolin with or without TA): more than 6 times

C[C@H](CCC(=O)O)C[C@H](C)C[C@H](C)C(=O)/C=C(\O)[C@H](C)C[C@H](C)C/C=C/[C@@H](C)[C@@H](O)[C@@H](C)[C@@H](O)C[C@@H]1CC[C@@](C)([C@H]2CC[C@@](C)([C@@H](C)O)O2)O1 [ionomycin]
intracellular Ca2+ concentration after ionophore ([2]; 2 μM ionomycin, check of fura-2 loading): large increase

c1ccc2c(CC3=NCCN3)cccc2c1 [naphazoline]
antagonism of the Ca2+ increase induced by TA [2]: weak antagonists

NCC(O)c1ccc(O)cc1 (centres unmarked) [OA, octopamine]
Ca2+ increase compared with TA ([2]; OA 0.5 μM versus TA 10 nM (50 times higher concentration), FIG. 3): much lesser extent than TA

NCCc1ccc(O)c(O)c1 [dopamine]
absorbance at 570 nm (β-galactosidase, indicating cyclic AMP) with dopamine [4]: increase in absorbance at 570 nm

NCCc1ccc(O)cc1 [TA, tyramine]
Ca2+ response in untransformed cells [5]: no response
inhibition of forskolin-induced increase of cAMP ([1]; 200 μM IBMX): significantly inhibits
inhibition of forskolin-induced increase of cAMP ([1]; 200 μM IBMX, listed as tyramine): inhibition
TA concentration giving maximal response (cAMP inhibition) ([1]; 10 μM Fsk, 200 μM IBMX): 1 µM
TA concentration giving minimal response (cAMP inhibition) ([1]; 10 μM Fsk, 200 μM IBMX): 1 nM
decrease in cAMP production with 1 μM TA when compared to 1 μM OA ([1]; 10 μM Fsk, 200 μM IBMX): 4 fold
effect on cAMP level in untransformed cells ([3]; 1 μM TA, 30 min): did not result in any effect
TA concentration giving maximal Ca2+ response ([2]; MEL-TyrLoc clone, FIG. 2): 1 µM
Ca2+ increase after addition of TA ([2]; MEL-TyrLoc clone, dose-response 0.01 μM upwards, FIG. 2): clear transient increase in Ca^2+
activating concentrations lower than OA ([2]; TA versus OA as agonist of TyrLoc in MEL-TyrLoc cells (summary of Ca2+ and cAMP results)): 3–4 orders of magnitude

CN(C)CCCN1c2ccccc2Sc2ccc(Cl)cc21 [Chlorpromazine]
antagonism of the effect of TA on cAMP [1]: antagonistic effects
antagonism of the Ca2+ increase induced by TA [2]: clearly inhibited

COC(=O)[C@@H]1[C@H]2C[C@H]3c4[nH]c5ccccc5c4CCN3C[C@@H]2CC[C@@H]1O [Yohimbine]
antagonism of the effect of TA on cAMP [1]: inhibited the effect of TA in a dose dependent manner
antagonism of the Ca2+ increase induced by TA [2]: strongest antagonist
antagonism of the Ca2+ increase induced by TA ([2]; listed as yohimbine): better receptor antagonist than chlorpromazine and mianserin
inhibition of the Ca2+ response to 0.5 μM TA [2, 6]: concentration-dependent inhibition
inhibition of the Ca2+ response to 5 μM TA [2, 6]: could not inhibit
inhibition of the Ca2+ response to 0.5 μM TA ([2]; yohimbine 0.1, 1 and 2.5 μM, FIG. 4, listed as yohimbin): inhibition

NCCc1c[nH]c2ccc(O)cc12 [serotonin]
forskolin stimulated cAMP in the presence of serotonin (serotonin receptor; forskolin and serotonin): decrease in forskolin stimulated cAMP
cyclic AMP signal with serotonin alone (serotonin receptor; serotonin alone): no effect

c1ccc(CC2=NCCN2)cc1 [tolazoline]
antagonism of the Ca2+ increase induced by TA [2]: weak antagonists

CCN(CC)CCNC(=O)c1cc(Cl)c(N)cc1OC [metaclopramide]
effect on basal Ca2+ concentrations or on the response of the cells to TA ([2]; at concentrations below 20 μM): no detectable effect

Source: patent US7033784B1, “Method of producing an erythroid cell which is undifferentiated yet capable of expressing a heterologous protein” (Syngenta Limited, priority 1999, dated 2006)
